From patent publication US7732622B2, “Naphthalene derivatives” (Glaxo Group Limited, priority 2001, dated 2010)

Each compound was assayed against T1, human EP4 receptor (Homo sapiens, UniProt P35408) (assay: Human EP4 Scintillation Proximity Assay (radioligand binding)). Details: not given.
T1 construct: expressed in transfected cells; host or cells: CHO cells infected with recombinant Semliki Forest Virus (SFV-1) particles; membranes prepared
Method: Quantification of radioligand binding by scintillation proximity assay (SPA) is a long-established principle. Briefly, the affinity of novel compounds for a receptor is assessed by the specific competition between known quantities of radiolabelled ligand and novel compound for that receptor. Increasing concentrations of novel compound reduce the amount of radiolabel that binds to the receptor. This gives rise to a diminishing scintillation signal from SPA beads coated with membranes that bear the receptor. The signal may be detected with a suitable scintillation counter and the data generated may be analysed with suitable curve-fitting software.
The human EP4 SPA assay (hereafter referred to as ‘the assay’) utilises membranes prepared from Chinese Hamster Ovary (CHO cells) infected with Semliki Forest Virus (SFV). Genetically engineered SFV-1 viral particles containing the genetic sequence of the human EP4 receptor were used to infect CHO cells resulting in expression of the receptor protein in cellular membranes. Cells washed free of media are homogenised in a pH-buffered medium containing peptidase inhibitors. A suitable buffer is of the following composition: 50 mM HEPES, 1 mM EDTA, 25 μg/ml bacitracin, 100 μM leupeptin, 1 mM PMSF, 2 μM Pepstatin A, pH adjusted to 7.4 with KOH. Following removal of cell debris by a low-speed centrifugation, a pellet of membranes is prepared by a high-speed (48000 g) centrifugation of the resulting supernatant. Membrane suspensions such as that described may be stored at −80° C. until used.
For assay, membranes expressing human EP4 receptors are diluted in a pH-buffered medium and mixed with SPA beads coated with a suitable substance to facilitate the adhesion of membranes to the beads. The concentrations of membrane protein and SPA beads chosen should result in SPA binding signal of at least 300 corrected counts per minute (CCPM) when tritiated radioligand at a concentration close to its Kd (affinity value) is combined with the mixture. Non-specific binding (nsb) may be determined by competition between the radiolabelled ligand and a saturating concentration of unlabelled ligand. In order to quantify the affinity of novel EP4 receptor ligands, compounds are diluted in a stepwise manner across the wells of a 96-well plate. Radioligand, novel compound, and unlabelled ligand are then added to a 96-well plate suitable for the measurement of SPA binding signals prior to the addition of bead/membrane mixture to initiate the binding reaction. Equilibrium may be achieved by incubation at room temperature for 120 minutes prior to scintillation counting. The data so generated may be analysed by means of a computerised curve-fitting routine in order to quantify the concentration of compound that displaces 50% of the specific radioligand binding (IC50). The affinity (pKi) of the novel compound may be calculated from the IC50 by application of the Cheng-Prusoff correction. Suitable reagents and protocols are: reaction buffer containing 50 mM HEPES, 10 mM MgCl2, pH adjusted to 7.4 with KOH; SPA beads coated with wheatgerm agglutinin; 1.25 nM [^3H]-prostaglandin E2 as radioligand; 10 μM prostaglandin E2 as unlabelled ligand; a three-fold dilution series of novel compound starting at 10 μM and ending at 0.3 nM is adequate.

T1 sequence (P35408 whole entry): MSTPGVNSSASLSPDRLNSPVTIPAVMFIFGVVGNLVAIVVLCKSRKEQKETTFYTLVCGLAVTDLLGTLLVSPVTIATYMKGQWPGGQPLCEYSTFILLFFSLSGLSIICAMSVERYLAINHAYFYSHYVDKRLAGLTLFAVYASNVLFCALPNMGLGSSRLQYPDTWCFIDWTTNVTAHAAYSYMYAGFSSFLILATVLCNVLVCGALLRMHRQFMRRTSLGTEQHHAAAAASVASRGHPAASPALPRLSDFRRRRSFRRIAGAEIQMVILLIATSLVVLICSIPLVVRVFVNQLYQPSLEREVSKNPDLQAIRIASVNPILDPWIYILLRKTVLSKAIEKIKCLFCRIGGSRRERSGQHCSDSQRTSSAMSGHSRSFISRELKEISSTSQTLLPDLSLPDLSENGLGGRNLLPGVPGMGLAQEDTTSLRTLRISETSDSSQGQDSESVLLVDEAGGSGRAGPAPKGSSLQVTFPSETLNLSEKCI

Ki, ≤ 1000 nM:
CC(C)Oc1c2c(c(OC(C)C)c3ccccc13)C(=O)N(c1ccc(CC(=O)O)cc1)C2 [Example 4, [4-(4,9-Di-isopropoxy-1-oxo-1,3-dihydro-2H-benzo[f]isoindol-2-yl)phenyl]acetic acid]
CCCOc1c2c(c(OCCC)c3ccccc13)C(=O)N(c1ccc(CC(=O)O)cc1)C2 [Example 5, [4-(4,9-Dipropoxy-1-oxo-1,3-dihydro-2H-benzo[f]isoindol-2-yl)phenyl]acetic acid]
CCOc1c2c(c(OCC)c3ccccc13)C(=O)N(c1ccc(CC(=O)O)cc1)C2=O [Example 12, [4-(4,9-Diethoxy-1,3-dioxo-1,3-dihydro-2H-benzo[f]isoindol-2-yl)phenyl]acetic acid]

Same assay, conditions: SPA, membranes of CHO cells expressing human EP4 receptor, 1.25 nM [3H]-prostaglandin E2 as radioligand; pKi from IC50 by Cheng-Prusoff correction; read-out: pKi at EP4 receptors (converted)

Ki, ≤ 1000 nM:
COc1c2c(c(OC)c3ccccc13)C(=O)N(c1ccc(CC(=O)O)cc1)C2 [Example 1, [4-(4,9-Dimethoxy-1-oxo-1,3-dihydro-2H-benzo[f]isoindol-2-yl)phenyl]acetic acid]
CC(C)Oc1c2c(c(OC(C)C)c3ccccc13)C(=O)N(c1ccc(CC(=O)O)cc1)C2=O [Example 13, [4-(4,9-Di-isopropoxy-1,3-dioxo-1,3-dihydro-2H-benzo[f]isoindol-2-yl)phenyl]acetic acid]
CCCOc1c2c(c(OCCC)c3ccccc13)C(=O)N(c1ccc(CC(=O)O)cc1)C2=O [Example 14, [4-(4,9-Dipropoxy-1,3-dioxo-1,3-dihydro-2H-benzo[f]isoindol-2-yl)phenyl]acetic acid]
CCOc1c2c(c(OC(C)C)c3ccccc13)C(=O)N(c1ccc(CC(=O)O)cc1)C2=O [Example 17, [4-(4-Ethoxy-9-isopropoxy-1,3-dioxo-1,3-dihydro-2H-benzo[f]isoindol-2-yl)phenyl]acetic acid]
